PMC11956017, “Design of Benzyl-triazolopyrimidine-Based NADPH Oxidase Inhibitors Leads to the Discovery of a Potent Dual Covalent NOX2/MAOB Inhibitor” (Journal of Medicinal Chemistry, 2025)
Entries after “also recorded” stand apart in the source; their conditions may differ. Marks after values point to notes of the source that are not given here.

Legend:
monocytic U937 = tested on: monocytic U937; set-up: method as in PMID 37884805; conditions: cited from earlier work
NOX4 = conditions: cited from earlier work
NOX2 = NOX2 (Homo sapiens, UniProt P04839); set-up: NOX2 was expressed as native protein in X-CGD PLB-985 cells transduced with the RD114 pseudotyped MFGS-NOX2 vector; expressed in transfected cells; host or cells: X-CGD PLB-985 cells transduced with MFGS-NOX2; isolated membranes; Cytosolic proteins made in E. coli; conditions: cited from earlier work
NOX5 = conditions: cited from earlier work
NOX1 = conditions: cited from earlier work
BV2 cells [1] = assay: qRT-PCR of iNOS, IL-1β and IL-6 transcripts in BV2 cells; format: cell-based, murine; conditions: cells pre-stimulated with LPS/IFN-γ for 24h, then 10 µM compound for 24 h
Method: BV2 murine microglial cells were cultured in DMEM supplemented with 10% heat-inactivated FBS, 100 IU/mL penicillin G, […] streptomycin, and […] amphotericin B and grown at 37 °C in 5% CO2 and a humidified atmosphere. […]
BV2 cells were lysed in a Trizol reagent for isolation of RNA. A reverse transcription reaction was performed in a thermocycler (MJMini personal thermal cycler; Biorad) using an IScript Reverse Transcription Supermix (Biorad) according to the manufacturer’s protocol, under the following conditions: incubation at 25 ° C for 5 min, reverse transcription at 42 ° C for 30 min, and inactivation at 85 ° C for 5 min. Real-time PCR (rtPCR) was carried out in an I-Cycler IQ Multicolor rtPCR detection system (Biorad) using a SsoFast EvaGreen Supermix (Biorad) according to the manufacturer’s instructions. The PCR protocol consisted of 40 cycles of denaturation at 95 ° C for 30 s and annealing/extension at 60 ° C for 30 s. For quantification analysis, the comparative threshold cycle (Ct) method was used. The Ct values from each gene were normalized to the Ct value of GAPDH in the same RNA samples. Relative quantification was performed using the 2^–ΔΔCt method (Schmittgen and Livak, 2008) and expressed as a fold change in arbitrary values. Primers used are as follows: • iNOS fw: […]; rev: […]. • IL-1β fw: […]; rev: […]. • IL-6 fw: […]; rev: […].

BV2 cells [2] = assay: ROS detection with CellROX Deep Red in BV2 cells; format: cell-based, murine; conditions: 10 μM, LPS/IFN-γ stimulation, 48 h
Method: BV2 murine microglial cells were cultured in DMEM supplemented with 10% heat-inactivated FBS, 100 IU/mL penicillin G, […] streptomycin, and […] amphotericin B and grown at 37 °C in 5% CO2 and a humidified atmosphere. […] After 30 min, LPS 100 ng/mL and IFN-γ 20 ng/mL were added to the medium for an additional 48 h. After treatment, BV2 cells were incubated with a CellROX Deep Red reagent (cat. no. C10422) at 5 μM and incubated for 30 min at 37 °C as indicated by the manufacturer protocol. ROS levels were measured by a spectrofluorometer, taking as 100% the median fluorescence intensity of cells treated with the vehicle.

human MAOB = biological target: T1, human MAOB (Homo sapiens, UniProt P27338); assay: Purified MAOB, Amplex Red/horseradish peroxidase coupled assay; format: biochemical; conditions: 10 nM MAOB, 1 mM benzylamine
T1 construct: made in house; host or cells: Pichia pastoris
T1 sequence (P27338 1-520): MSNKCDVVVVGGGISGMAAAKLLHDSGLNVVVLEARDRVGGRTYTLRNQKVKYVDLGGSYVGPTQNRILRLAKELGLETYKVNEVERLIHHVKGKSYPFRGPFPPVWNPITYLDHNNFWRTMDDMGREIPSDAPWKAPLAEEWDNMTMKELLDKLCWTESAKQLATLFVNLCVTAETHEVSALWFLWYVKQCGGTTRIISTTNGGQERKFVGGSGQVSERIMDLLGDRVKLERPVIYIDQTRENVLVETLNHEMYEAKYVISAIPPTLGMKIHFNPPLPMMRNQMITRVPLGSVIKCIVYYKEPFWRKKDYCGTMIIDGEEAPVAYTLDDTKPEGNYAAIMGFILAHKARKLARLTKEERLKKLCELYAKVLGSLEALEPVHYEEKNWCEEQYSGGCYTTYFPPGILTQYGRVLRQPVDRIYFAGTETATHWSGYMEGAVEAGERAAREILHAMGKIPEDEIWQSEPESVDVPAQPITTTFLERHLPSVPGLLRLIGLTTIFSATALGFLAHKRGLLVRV
Method: (§1) IC50 values on human MAOA and human MAOB were determined using the Amplex Red/horseradish peroxidase coupled assay. […] Measurements were performed using a ClarioStar plate reader (excitation 572 nm and emission 583 nm) (BMG Labtech). IC50 values were obtained by fitting the percentage of inhibition versus log(inhibitor concentration) using GraphPad software 7.0. The covalent modification of the flavin upon the reaction with the propargylamine-containing inhibitors was monitored spectrophotometrically using a diode array UV/visible spectrophotometer (Agilent Technologies). […] The cofactor covalent modification was monitored over time following the shift of the enzyme-bound flavin (peaks at 370 and 456 nm) to 410 nm (ε410 = 23,500 M^–1 cm^–1) (Figure S10).

human MAOA = biological target: T2, human MAOA (Homo sapiens, UniProt P21397); assay: Purified MAOA, Amplex Red/horseradish peroxidase coupled assay; format: biochemical; conditions: 70 nM MAOA, 1 mM kynuramine
T2 construct: made in house; host or cells: Pichia pastoris
T2 sequence (P21397 1-527): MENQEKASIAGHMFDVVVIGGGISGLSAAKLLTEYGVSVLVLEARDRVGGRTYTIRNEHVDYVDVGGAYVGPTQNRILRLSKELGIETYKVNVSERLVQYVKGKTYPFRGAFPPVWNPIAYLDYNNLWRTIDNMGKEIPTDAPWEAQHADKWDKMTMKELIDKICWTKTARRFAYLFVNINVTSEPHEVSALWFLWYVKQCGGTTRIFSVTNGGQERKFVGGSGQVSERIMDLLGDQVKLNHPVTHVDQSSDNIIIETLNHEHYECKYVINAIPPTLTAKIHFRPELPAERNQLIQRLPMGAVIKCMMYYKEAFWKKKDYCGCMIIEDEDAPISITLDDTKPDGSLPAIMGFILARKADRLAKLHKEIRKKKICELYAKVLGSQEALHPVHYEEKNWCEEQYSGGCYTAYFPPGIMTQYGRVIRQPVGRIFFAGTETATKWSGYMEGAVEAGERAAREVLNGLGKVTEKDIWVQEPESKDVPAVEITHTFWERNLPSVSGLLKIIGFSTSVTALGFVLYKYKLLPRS
Method: as §1

BV2 cells [3] = assay: MTT viability assay in BV2 cells; format: cell-based, murine; conditions: 10 μM, LPS/IFN-γ stimulation, 48 h
Method: BV2 murine microglial cells were cultured in DMEM supplemented with 10% heat-inactivated FBS, 100 IU/mL penicillin G, 100 mg/mL streptomycin, and 2.5 mg/mL amphotericin B and grown at 37 °C in 5% CO2 and a humidified atmosphere. […] After 30 min, LPS 100 ng/mL and IFN-γ 20 ng/mL were added to the medium for an additional 48 h.
Cell viability was determined by the MTT assay. Briefly, MTT (dissolved in PBS with a final concentration of 0.5 mg/mL) was added to the medium culture. After 2 h of incubation, the cells were mixed with DMSO and shaken for 10 min. Finally, the absorption of the samples was read by regulating the 570 nm filter as the main wavelength and the 630 nm filter as the referenced wavelength. The blank was subtracted from all samples to obtain pure cellular absorption. Results are expressed as the percentage of cell survival, taking 100% of the cells treated with the vehicle.

Purified MAOA = conditions: read-out: IC50 Purified MAOA; cited from earlier work
Purified MAOB = conditions: read-out: IC50 Purified MAOB; cited from earlier work
[4] = tested on: dehydrogenase domain of csNOX5; assay: NADPH depletion assay on csNOX5 dehydrogenase domain; format: biochemical, Cylindrospermum stagnale; conditions: 100 μM inhibitor; 1 μM purified protein, 250 μM NADPH

For `O=C1c2ccccc2-c2cc(N3CCC4(CC3)OCCO4)nc3cccc1c23` [Compound M41], the “viability of monocytic U937 and other myeloid cancer lines” value (monocytic U937) is listed as “reduced the viability”.
In the case of `c1ccc(Cn2nnc3c(Sc4ncco4)ncnc32)cc1` [VAS3947], the IC50 (NOX4) is listed as 30.5 µM, the IC50 (NOX2) is listed as 5.6 µM and the IC50 (NOX5) is listed as 39.2 µM. For the same compound, the IC50 (NOX1) was 86.8 µM.
With `c1ccc(Cn2nnc3c(Sc4nc5ccccc5o4)ncnc32)cc1` [VAS2870, 3-benzyl-7-(2-benzoxazolyl)thio-1,2,3-triazolo[4,5-d]pyrimidine, reference compound] the “effects on iNOS, IL-1β and IL-6 mRNA without inhibitor pretreatment” value (BV2 cells [1]) was “negligible”, the “ROS levels in BV2 cells” value (BV2 cells [2]) was “decrease the ROS levels” and the IC50 (human MAOB) was greater than 100 µM. For the same compound, the “IC50 Purified MAOB” value (human MAOB) was “ineffective; also recorded: Not detected”, the IC50 (human MAOA) was greater than 100 µM and the “IC50 Purified MAOA” value (human MAOA) was “ineffective; also recorded: Not detected”.
In the case of `C#CCN[C@@H]1CCc2ccccc21` [Rasagiline, reference compound], the BV2 cell viability (BV2 cells [3]) is given as “negligible effects on cells viability”, the “ROS levels in BV2 cells” value (BV2 cells [2]) is given as “decrease the ROS levels” and the IC50 (Purified MAOA) is given as 0.7 µM. The IC50 (Purified MAOB) was 0.014 µM.
For `c1ccc(-c2cc(NC3CCNCC3)nc3ccccc23)cc1` [MC4876], the “viability of monocytic U937 and other myeloid cancer lines” value (monocytic U937) is listed as “reduced the viability”.
For `Clc1ncnc2c1nnn2Cc1ccccc1` [Compound 3, 3-Benzyl-7-chloro-3H-[1,2,3]triazolo[4,5-d]pyrimidine], the “% INHIBITION csNOX5 DEHYDROGENASE DOMAIN” value [4] was 23.4 ± 4.8^b %.
